Source: PubChem BioAssay AID1259334 (Broad Institute, 2017)
Calls of active or inactive are those of the source. No stated cut-off is given here; in the data, active means AC50 below about 11 µM.

system: B cell line, TNFa signaling counterscreen reporter; assay: TNFa signaling inhibitors in B cell line, dose response, counter-screen (AID 1259334);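 further: cells stimulated with TNFa after compound preincubation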

SMILES	AC50
C[C@@H]1CN([C@H](C)CO)C(=O)c2c(c3ccccc3n2C)-c2ccccc2CO[C@H]1CN(C)C(=O)c1cc(Cl)cc(Cl)c1	> 20 µM (inactive)
O=C1C=CC(=O)c2c(O)c(N3CCN(CCOCCO)CC3)c(Br)c(O)c21	1.33 µM
NC(=NCCCCCCN=C(N)/N=C(\N)Nc1ccc(Cl)cc1)/N=C(\N)Nc1ccc(Cl)cc1	10.5 µM
N#Cc1cccc(-c2ccc(C3[C@@H]4CN(C(=O)Nc5ccc(C(F)(F)F)cc5)C[C@H]3N4)cc2)c1 (stereo partly specified)	10 µM
N#Cc1cccc(-c2ccc([C@@H]3[C@@H]4CN(S(=O)(=O)c5ccc(-c6ccccc6)cc5)C[C@H]3N4)cc2)c1	11.4 µM
COc1ccc(C(=O)O/N=C2\C(=O)N(C)c3ccccc32)cc1	7.39 µM
C[C@@H]1CN([C@H](C)CO)C(=O)c2cc(NS(=O)(=O)c3cccs3)ccc2O[C@@H](C)CCCCO[C@H]1CN(C)Cc1ccc(Cl)c(Cl)c1	> 20 µM (inactive)
c1cc(-c2cnn3cc(-c4ccc(OCCN5CCCCC5)cc4)cnc23)ccn1	1.13 µM
N#C[C@H]1[C@H](c2ccc(C#Cc3ccc(F)cc3)cc2)[C@@H](CO)N1C(=O)C1CCC1	> 20 µM (inactive)
CC(C)(C)NCC(=Cc1ccccc1)C(=O)c1ccccc1	2.84 µM
O=C(NC(=S)/C(=C1\CCCCCN1)[N+](=O)[O-])c1ccccc1	0.12 µM
CSc1ccc2c(c1)N(CCC1CCCCN1C)c1ccccc1S2 (stereo unspecified)	6.07 µM
COc1ccccc1NC(c1cccnc1)c1ccc2cccnc2c1O (stereo unspecified)	8.22 µM
CC[C@@]1(O)C(=O)OCc2c1cc1n(c2=O)Cc2cc3cc(O)ccc3nc2-1	1.13 µM
COc1c(-c2coc3cc4c(cc3c2=O)CC(O)C(C)(C)O4)ccc2c1C=CC(C)(C)O2 (stereo unspecified)	11 µM
CC(=O)O[C@@H]1C[C@@]2(C)[C@H](c3ccoc3)C[C@H]3O[C@]32[C@]2(C)C(=O)C(=O)C3C(C)(C)C(=O)C=C[C@]3(C)C12 (stereo partly specified)	1.22 µM
C[C@H](CO)N1C[C@H](C)[C@H](CN(C)CC2CCCCC2)OCCCC[C@H](C)Oc2ccc(NC(=O)Nc3ccc(C(F)(F)F)cc3)cc2C1=O	7.26 µM
C[C@H]1CN([C@@H](C)CO)C(=O)c2c(c3ccccc3n2C)-c2ccccc2CO[C@@H]1CN(C)C(=O)Nc1cccc(C(F)(F)F)c1	9.38 µM
N#CC(C#N)=NNc1ccc(OC(F)(F)F)cc1	7.15 µM
CC(=O)O[C@H]1C[C@H](O[C@H]2[C@@H](O)C[C@H](O[C@H]3[C@@H](O)C[C@H](O[C@H]4CC[C@@]5(C)C(CCC6C5C[C@@H](O)[C@]5(C)[C@@H](C7=CC(=O)OC7)CC[C@]65O)C4)O[C@@H]3C)O[C@@H]2C)O[C@H](C)[C@H]1O[C@@H]1O[C@H](CO)[C@@H](O)[C@H](O)[C@H]1O (stereo partly specified)	1.01 µM
C[C@H]1O[C@@H](O[C@H]2[C@@H](O)C[C@H](O[C@H]3[C@@H](O)C[C@H](O[C@H]4CC[C@]5(C)C6CC[C@]7(C)[C@@H](C8=CC(=O)OC8)CC[C@]7(O)C6CC[C@@H]5C4)O[C@@H]3C)O[C@@H]2C)C[C@H](O)[C@@H]1O (stereo partly specified)	0.444 µM
O=C(CNC(=O)c1ccco1)Nc1ccc2c(c1)OCCO2	> 20 µM (inactive)

SMILES	AC50
CCS(=O)(=O)N1[C@H](CO)[C@@H](c2ccc(C#Cc3ccccc3F)cc2)[C@@H]1C#N	7.11 µM
C=C1CC(Cn2cc(Br)c(=O)[nH]c2=O)(c2ccc(-c3ccccc3)cc2)OC1=O (stereo unspecified)	1.07 µM
C[C@H]1CN([C@@H](C)CO)C(=O)c2c(c3ccccc3n2C)-c2ccccc2CO[C@@H]1CN(C)Cc1cccc(C(F)(F)F)c1	8.42 µM
COc1cccc(S(=O)(=O)N(C)C[C@H]2OCc3ccccc3-c3c(n(C)c4ccccc34)C(=O)N([C@@H](C)CO)C[C@@H]2C)c1	> 20 µM (inactive)
COc1ccc2c3c([nH]c2c1)[C@H](CO)N(C(=O)Nc1ccc(F)cc1)CC31CCN(C(=O)c2ccccc2F)CC1	6.12 µM
CC1CCOC(=O)C=CC=CC(=O)OC2CC3OC4C5OC5(C)C(O)CC4(COC(=O)C1O)C2(C)C31CO1 (stereo unspecified)	0.0338 µM
COc1ccc(CNCCC(c2ccc(F)cc2)c2ccc(OC(C)C)cc2)cc1OC (stereo unspecified)	3.5 µM
CC1=C(O)C(=O)C=C2C1=CC=C1C2(C)CCC2(C)C3CC(C)(C(=O)O)CCC3(C)CCC12C (stereo unspecified)	0.414 µM
COC(=O)C1=C(C(=O)OC)C2OC1c1cc3ccccc3cc12	0.519 µM
O=S(c1ccccc1O)S(=O)c1ccccc1O (stereo unspecified)	> 20 µM (inactive)
C[C@H]1CN([C@@H](C)CO)C(=O)c2c(c3ccccc3n2C)-c2ccccc2CO[C@H]1CN(C)C(=O)Nc1cccc(C(F)(F)F)c1	> 20 µM (inactive)
O=c1cc(-c2ccc(O)cc2)oc2ccc3ccccc3c12	1.67 µM
COc1cccc2c1C(=O)c1c(O)c3c(c(O)c1C2=O)C[C@@](O)(C(C)=O)C[C@@H]3O[C@H]1C[C@H](N)[C@H](O)[C@H](C)O1	0.359 µM
CC1OC(OC2CC(O)C3(CO)C4C(O)CC5(C)C(C6=CC(=O)OC6)CCC5(O)C4CCC3(O)C2)C(O)C(O)C1O (stereo unspecified)	0.109 µM
COc1ccc(CN(CCC(c2ccccc2)c2ccc(OC(C)C)cc2)C(=O)CCl)cc1OC (stereo unspecified)	1.46 µM
Cc1cc(OCC(=O)OCC(=O)NCc2ccco2)ccc1Cl	> 20 µM (inactive)
CC1(C)C(=O)C=C[C@@]2(C)C1C=C[C@]1(C)C2CC[C@@]2(C)[C@H](c3ccoc3)OC(=O)[C@H]3O[C@]321 (stereo partly specified)	4.98 µM
Cc1noc(C)c1S(=O)(=O)Nc1ccc2c(c1)CC(=O)N([C@@H](C)CO)C[C@@H](C)[C@@H](CN(C)Cc1ccc(Oc3ccccc3)cc1)O2	7.01 µM
C1CCC(C(CC2CCCCN2)C2CCCCC2)CC1 (stereo unspecified)	2.75 µM
COc1ccc(S(=O)(=O)Nc2ccc3c(c2)C(=O)N([C@H](C)CO)C[C@@H](C)[C@@H](CN(C)Cc2ccc(C(F)(F)F)cc2)OCCCC[C@H](C)O3)cc1	> 20 µM (inactive)
CCS(=O)(=O)N1Cc2ccccc2CC1C(=O)Nc1nc2ccccc2s1 (stereo unspecified)	6.66 µM
COc1ccc(-c2cc(-c3ccccc3)c(C#N)c(S(C)=O)n2)cc1 (stereo unspecified)	1.53 µM

SMILES	AC50
CCC1=C(CC2NCCc3ccccc32)CC2c3cc(OC)c(OC)cc3CCN2C1 (stereo unspecified)	1.19 µM
COC(=O)C[C@](O)(CCCC(C)(C)O)C(=O)O[C@@H]1C(OC)=C[C@]23CCCN2CCc2cc4c(cc2[C@H]13)OCO4	< 0.0046 µM
OC1CC2CCC(C1)N2CCCN1c2ccccc2Sc2ccc(Cl)cc21 (stereo unspecified)	9.1 µM
Cc1ccccc1C(=O)N1CCC(C(=O)Nc2nc3ccc(F)cc3s2)CC1	7.86 µM
O=C(CCN1CCC(c2ccccc2)C1)c1ccc2c(c1)OCCO2 (stereo unspecified)	6.18 µM
O=C(C1CC1)N1C[C@@H]2N[C@H](C1)C2c1ccc(-c2cccc(F)c2)cc1 (stereo partly specified)	5.96 µM
Cc1ccc(C(OCC(O)CNCc2ccc(F)cc2)c2ccccc2)cc1 (stereo unspecified)	7.2 µM
O=C(Nc1ccccn1)c1ccc(-c2ccccc2)cc1	2.91 µM
O=C(c1nnsc1S(=O)(=O)c1ccc(Cl)cc1)N1CCOCC1	2.07 µM
COC(=O)c1ccc2nc(NC(=O)C(C)(C)C)sc2c1	2.32 µM
C[C@@H]1CN([C@@H](C)CO)S(=O)(=O)c2ccc(C#Cc3ccccc3F)cc2O[C@H]1CN(C)C(=O)Cc1cccnc1	> 20 µM (inactive)
CC[C@@]1(O)C(=O)OCc2c1cc1n(c2=O)Cc2cc3ccccc3nc2-1	0.531 µM
N#C[C@H]1[C@H](c2ccc(C#Cc3ccccc3F)cc2)[C@@H](CO)N1C(=O)c1cccnc1	9.37 µM
CC(C)C1CC(N(C)C)=CC(=S)N1 (stereo unspecified)	10.7 µM
Oc1ccc2c(c1)OCC1(O)Cc3cc(O)c(O)cc3C21 (stereo unspecified)	2.18 µM
CC1CC(C)C(=O)C(C(O)CC2CC(=O)NC(=O)C2)C1 (stereo unspecified)	0.115 µM
CC1CC(C)C(=O)C(C(CC2CC(=O)NC(=O)C2)OC(=O)CC(=O)c2ccccc2)C1 (stereo unspecified)	2.17 µM
COc1ccc(C#Cc2ccc([C@@H]3[C@H](CO)N4CCCCN(C(=O)Nc5cccc(F)c5)C[C@@H]34)cc2)cc1	4.57 µM
CC(=O)OC1CCC2(C)C(CCC3C4CC=C(C(C)=O)C4(C)OC(=O)CC32)C1 (stereo unspecified)	1.65 µM
COc1ccc(S(=O)(=O)Nc2ccc3c(c2)C(=O)N([C@@H](C)CO)C[C@@H](C)[C@@H](CN(C)Cc2ccc(C(F)(F)F)cc2)OCCCC[C@@H](C)O3)cc1	> 20 µM (inactive)
C[C@H](CO)N1C[C@H](C)[C@H](CN(C)S(=O)(=O)c2ccc([N+](=O)[O-])cc2)OCc2ccccc2-c2c(n(C)c3ccccc23)C1=O	9.88 µM
CC(=O)OCC(=O)C1(O)CCC2C3CCC4=CC(=O)CCC4(C)C3(Cl)C(O)CC21C (stereo unspecified)	> 20 µM (inactive)

SMILES	AC50
CC(=NNc1ccc2ccccc2n1)c1ccccc1O	1.52 µM
COC1=CC(=O)c2c(ccc3ncnc(N)c23)C1=O	0.98 µM
CCC(C)(O)C(=O)OC1C(=O)OC2CC3C(C)=CC(=O)C(O)C3(C)C3C4(O)OCC23C1C(C)C4O (stereo unspecified)	0.0228 µM
O=C(Nc1ccccc1)N1CC(=O)N2[C@H](CO)[C@@H](c3ccc(C#CC4CCCCC4)cc3)[C@H]2C1	11.5 µM
COc1cc2cc(C(=O)N3CC(COS(C)(=O)=O)c4ccc(O)cc43)[nH]c2c(OC)c1OC (stereo unspecified)	0.00612 µM
CCCCCCCCCCCCCCCC[n+]1ccccc1	0.119 µM
COc1ccc(-c2ccc([C@H]3[C@@H](C#N)N(C(=O)c4cccc(F)c4)[C@H]3CO)cc2)cc1	> 22 µM (inactive)
CC1=CC2OC3CC4OC(=O)C=CC=CC(C(C)O)OCC(O)C5(C)OC5C(=O)OCC2(CC1O)C4(C)C31CO1 (stereo unspecified)	0.0273 µM
COc1ccc(/C=N/Nc2ncccc2[N+](=O)[O-])c(OC)c1	5.22 µM
CC(C)c1ccc(NC(=O)Nc2nc(C(N)COCc3ccccc3)cs2)cc1 (stereo unspecified)	1.78 µM
Cc1ccc2c(=O)c3ccccc3n(CCCN)c2c1C	3.28 µM
CCOC(=O)c1c(SCCN2CCCC2)n(-c2ccccc2)c(=S)n(-c2ccccc2)c1=O	4.78 µM
COc1ccc(S(=O)(=O)N(C)C[C@H]2Oc3ccc(NC(=O)Nc4ccc(C(F)(F)F)cc4)cc3C(=O)N([C@@H](C)CO)C[C@@H]2C)cc1	> 20 µM (inactive)
CC1=C(C#N)c2nc(N)c(C#N)c(C)c2/C1=C\c1ccccc1	3.57 µM
CC(C)=CCc1c2c(c3occ(-c4ccc(O)c(O)c4)c(=O)c3c1O)C=CC(C)(C)O2	8.15 µM
CC(=O)OC(C)(C)/C=C/C(=O)C(C)(O)C1C(O)CC2(C)C3CC=C4C(CC(O)C(=O)C4(C)C)C3(C)C(=O)CC12C (stereo unspecified)	0.029 µM
N#CC(C#N)=NNc1cccc(Cl)c1	9.25 µM
COc1cc(C(C)C)c2c(c1)S(=O)(=O)N(COc1cc(=O)n3cccc(OCCN4CCCCC4)c3n1)C2=O	3.4 µM
C[C@@H]1CN([C@@H](C)CO)C(=O)c2c(c3ccccc3n2C)-c2ccccc2CO[C@@H]1CN(C)C(=O)c1cc(Cl)cc(Cl)c1	> 20 µM (inactive)
O=C(NCCc1ccccc1)c1ccc2nccnc2c1	7.65 µM
